Patent US12091601B2 (priority 2020, dated 2024)
Structures can show the parent of a compound that is named as a salt.

What was measured:
[1] = Inhibition and re-activation of HF: quartz dissolution; settings: by themselves
Procedure: HF was inhibited by the addition of monoethanolamine (MEA), until no quartz (SiO2) was dissolved. A molar ratio of 1 MEA to HF or greater is necessary to inhibit HF's ability to dissolve quartz, and a ratio of 1.1 will used in further testing to provide a reasonable safety margin.
The inhibited HF solution can regain its quartz dissolving potential through the addition of an acidic solution, such as HCl.
To evaluate the performance of mud acids created with acid compositions comprising HCl:MEA in ratios of 4.4:1; 6.3:1; and 11.3:1, inhibited HF mud acids were prepared using HCl and acid compositions comprising HCl:MEA in ratios of 4.4:1; and 11.3:1 with various amount of free HCl (6 to 12%).

[2] = cited from earlier work

Cl [HCl]
quartz dissolved [1]: essentially no quartz

F[Si-2](F)(F)(F)(F)F.[Na+].[Na+] [Na2SiF6]
concentration above which precipitation occurs / solubility [2]: 6.4 g/L
